Test results from patent publication US6716819B2, “Use of xylitol to reduce ionic strength and activate endogenous antimicrobials for prevention and treatment of infections” (University of Iowa Research Foundation, priority 2000, dated 2004).

Legend:
[1] = test system: non-CF epithelia; assay: Liquid absorption by airway epithelia; type: cell-based, human; conditions: 60 μl saline/xylitol mixtures apical, 4 hours, increasing xylitol concentration
Procedure: (§1) FIG. 2. Effect of apical xylitol on rate of liquid absorption by non-CF and CF epithelia. Sixty μl of saline solution, xylitol solution, or indicated mixtures of the two were applied to the apical surface. Four hours later the solution was removed to measure rate of liquid absorption. A short incubation period was chosen to avoid secondary changes in the epithelium due to the large volume of apical liquid. Data are mean±SEM; n=15 from 3 different experiments. Some SEM bars are hidden by symbols.
(§2) Airway epithelial cells were isolated from tracheal and bronchial tissue. […] All epithelia were evaluated with scanning electron microscopy for the development of a ciliated apical surface.
(§3) Liquid absorption was measured using methods similar to those previously described (Smith, J. J., P. H. Karp, and M. J. Welsh. 1994. Defective fluid transport by cystic fibrosis airway epithelia. J. Clin. Invest. 93:1307-1311). […] After incubation for 4 hours, apical solutions were collected under mineral oil and their volume measured as previously described (Zabner, J., J. J. Smith, P. H. Karp, J. H. Widdicombe, and M. J. Welsh. 1998. Loss of CFTR chloride channels alters salt absorption by cystic fibrosis airway epithelia in vitro. Mol. Cell. 2:397-403; Smith, J. J., P. H. Karp, and M. J. Welsh. 1994. Defective fluid transport by cystic fibrosis airway epithelia. J. Clin. Invest. 93:1307-1311). […]

[2] = test system: CF epithelia; assay: Liquid absorption by airway epithelia; type: cell-based, human; conditions: 60 μl saline/xylitol mixtures apical, 4 hours, increasing xylitol concentration
Procedure: as §1, §2, §3

[3] = test system: S. aureus; assay: Growth in carbon-starved M9 media (O.D.); type: cell-based; conditions: M9 media supplemented at 100 mM
Procedure: (§4) FIGS. 5(A-G). Effect of xylitol on growth of different airway pathogens. A, B and C. Growth of P. aeruginosa (A), S. aureus, (B), and coagulase-negative Staphylococcus (C) were measured as O. D. M9 media alone is indicated by open triangle. Xylitol (closed circle), or succinate, mannitol, or sucrose (open circles), were added to M9 media at 100 mM as indicated. D. Nasal swabs were collected and cultured for 3 days in Lauria-Bertani media (open circles), in minimal M9 media (open squares), or in M9 media supplemented with 100 mM xylitol (closed circles). E, F and G. P. aeruginosa (E), S. aureus (F), and coagulase-negative Staphylococcus (G) were cultured in Lauria-Bertani media alone (open triangles), Lauria-Bertani media with 100 mM xylitol (closed circles), and Lauria-Bertani media containing tobramycin or levofloxacin (open circles).
To test the effect of xylitol on growth of different airway pathogens in a carbon-starved media, P. aeruginosa, S. aureus, and coagulase-negative Staphylococcus were grown overnight in Lauria-Bertani medium. The bacteria were then centrifuged and resuspended in M9 media containing either 100 mM succinate, mannitol, or sucrose, respectively, and grown overnight at 37° C. […] The optical density (O.D.) was measured after 0, 1, 2, and 4 hours at 600 nm on a Beckman DU640 Spectrophotometer (Schaumburg, Ill.). […]

[4] = test system: P. aeruginosa; assay: Antibiotic effect in Lauria-Bertani (rich) media; type: cell-based; conditions: Lauria-Bertani media with 100 mM xylitol
Procedure: as §4
(§5) To test the effect of xylitol on growth of different airway pathogens in a carbon-starved media, P. aeruginosa, S. aureus, and coagulase-negative Staphylococcus were grown overnight in Lauria-Bertani medium. The bacteria were then centrifuged and resuspended in M9 media containing either 100 mM succinate, mannitol, or sucrose, respectively, and grown overnight at 37° C. The bacteria were centrifuged and resuspended in M9 media alone. M9 media containing 100 mM xylitol, or 100 mM of the indicated metabolizable sugar, as positive control. The optical density (O.D.) was measured after 0, 1, 2, and 4 hours at 600 nm on a Beckman DU640 Spectrophotometer (Schaumburg, Ill.). To test the antibiotic effect of xylitol, P. aeruginosa, S. aureus, and coagulase-negative Staphylococcus were grown overnight in Lauria-Bertani medium. The bacteria were then centrifuged and resuspended in Lauria-Bertani media with and without 100 mM xylitol. As a positive control, antibiotics with specific activity to each of the bacteria were added to the media (40 μg/ml tobramycin or 40 μg/ml levofloxacin).

[5] = test system: coagulase-negative Staphylococcus; assay: Antibiotic effect in Lauria-Bertani (rich) media; type: cell-based; conditions: Lauria-Bertani media with 100 mM xylitol
Procedure: as §4, §5

[6] = test system: S. aureus; assay: Antibiotic effect in Lauria-Bertani (rich) media; type: cell-based; conditions: Lauria-Bertani media with 100 mM xylitol
Procedure: as §4, §5

OC[C@@H](O)[C@H](O)[C@@H](O)CO [xylitol]
rate of liquid absorption [1]: reduced the rate of liquid absorption | rate of liquid absorption [2]: reduced the rate of liquid absorption | growth of S. aureus [3]: failed to support growth | inhibition of growth of P. aeruginosa [4]: did not inhibit the growth | inhibition of growth of coagulase-negative Staphylococcus [5]: did not inhibit the growth | inhibition of growth of S. aureus [6]: did not inhibit the growth
